This is an account of results in US20090202508A1, “NEGATIVE REGULATION OF HYPOXIA INDUCIBLE FACTOR 1 BY OS-9” (THE JOHNS HOPKINS UNIVERSITY, priority 2004, published 2009).

One test concerns HIF-1α. Nature of the test: HIF-1α protein levels by immunoblot in transfected 293 cells. Type of test: cell-based, human. As to conditions: 293 cells co-transfected with HA-OS-9 and HIF-1α; MG132 10 μM; FIG. 4A. The protocol: 293 or Hep3B cells were seeded onto 24-well plates at 8×10^4 cells per well of a 24-well plate. The following day, the cells were transfected with plasmid DNAs using Fugene-6 (Roche) for 293 and Lipofectamine Plus (Invitrogen) for Hep3B cells. After 24 h, the cells were exposed to 20% or 1% O2 for 24 h. Cells were lysed, and the luciferase activities were determined by multi-well luminescence reader (PerkinElmer), using the Dual-Luciferase Reporter Assay System (Promega). For p2.1 reporter assay, cells were co-transfected with 15 ng of control reporter pSV-Renilla, 135 ng of HIF-1 reporter p2.1, and expression vector encoding HA-OS-9, HIF-1α, or empty vector. Unless indicated otherwise, 200 ng of HIF-1α, 400 ng of HA-OS-9, 1 ng of PHD2, or 1 ng of HIF-1α triple mutant P402A/P564A/N803A (HIF-1α TM) expression vector was used for co-transfection. For pGalA reporter assays, Hep3B cells were co-transfected with 12.5 ng of pSV-Renilla, reporter 200 ng of pG5ElbLuc, 100 ng of expression vector encoding the GAL4 DNA-binding domain alone or fused to HIF-1α residues 531-826 (Jiang et al. 1997) and empty vector or vector encoding HA-OS-9. For immunoblot assays, 293 cells were seeded at 3×10^6 cells per 10-cm plate. The following day, the cells were co-transfected with expression vectors using Fugene-6. After 24 h, the cells were exposed to 20% or 1% O2 with or without MG132 (10 μM) for 8 h and lysed in 200 μl of lysis buffer containing 50 mM Tris-Cl (pH 8.0), 150 mM NaCl, 5 mM EDTA, 0.1% SDS, 1% NP-40, 0.5% sodium deoxycholate, Complete protease inhibitor cocktail (Roche), sodium orthovanadate, and sodium vanadate (Sigma).
Background: A western blot detects proteins with antibodies after separation by electrophoresis.

The target in test [1] is T1, PHD2 (Homo sapiens, UniProt Q9GZT9).
T1 construct: expressed in transfected cells; host or cells: 293 cells (whole cell lysate used as the enzyme source)
T1 sequence (Q9GZT9 whole entry): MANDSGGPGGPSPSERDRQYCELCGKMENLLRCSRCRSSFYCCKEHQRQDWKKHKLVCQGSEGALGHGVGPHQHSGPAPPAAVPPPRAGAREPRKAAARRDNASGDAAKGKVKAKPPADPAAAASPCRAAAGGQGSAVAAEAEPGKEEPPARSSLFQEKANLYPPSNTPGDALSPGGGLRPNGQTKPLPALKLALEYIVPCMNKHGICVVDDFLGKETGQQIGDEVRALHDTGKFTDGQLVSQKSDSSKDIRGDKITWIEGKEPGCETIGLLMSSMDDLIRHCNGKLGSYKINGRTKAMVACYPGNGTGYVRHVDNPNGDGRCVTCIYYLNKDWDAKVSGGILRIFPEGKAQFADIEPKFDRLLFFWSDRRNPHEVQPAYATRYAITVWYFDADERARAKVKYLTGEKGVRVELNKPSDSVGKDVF
Nature of the test: Prolyl hydroxylation assay / in vitro VHL binding assay with GST-HIF-1α (531-826). Type of test: biochemical. The settings on record: lysates of PHD2/OS-9 transfected 293 cells; 1 mM DMOG; FIG. 7A. On the procedure:
[^35S]methionine-labeled VHL protein was synthesized in vitro and GST-HIF-1α (531-826) fusion protein (GstA) was expressed in E. coli. 293 cells were transfected with empty, PHD2, or OS-9 expression vector. After 24 h, cells were washed twice with cold hypotonic extraction buffer containing 20 mM Tris (pH 7.5), 5 mM KCl, 1.5 mM MgCl2, 1 mM dithiothreitol and lysed with hypotonic extraction buffer in a Dounce homogenizer. The cell extract was centrifuged at 10,000×g for 10 min at 4° C., and the supernatant was stored in aliquots at −70° C. GstA (4 μg) was preincubated with whole cell lysate (50 μg) in a total volume of 50 μl with PBS-T at 30° C. for 10 min with or without 1 mM dimethyloxalyl glycine (DMOG). The reaction was terminated by addition of desferrioxamine to 1 mM. One aliquot (0.5 μg of GstA) was used for immunoblot assay using anti-hydroxyproline-564 HIF-1α antibody (Chan et al., 2002). The remainder ([…] of GstA) was used for in vitro VHL binding assay.
(§1) For in vitro VHL binding assay, preincubated GstA and 5 μl of [^35S]methionine-labeled VHL protein were mixed in a total volume of 300 μl of PBS-T with 1 mM desferrioxamine and incubated at 4° C. for 90 min. 20 ul of glutathione-Sepharose-4B beads (Amersham Biosciences) was added and incubated for 30 min with rotation. Beads were washed three times with PBS-T. Proteins were eluted in Laemmli sample buffer, fractionated by SDS-PAGE, and detected by autoradiography. For PHD binding assay, […] of GST-HIF-1α was preincubated with 50 μg of -whole cell lysate in a total volume of 50 μl with PBS-T at 30° C. for 10 min with or without 1 mM DMOG. The reaction was terminated by addition of desferrioxamine to 1 mM, 20 μl of glutathione-Sepharose-4B beads were added and incubated for 30 min. The beads were washed three times with PBS-T. Bound protein was eluted in Laemmli sample buffer, fractionated by SDS-PAGE, and subjected to immunoblot assay using antibodies against PHD2 (Novus Biologicals Inc.) or GST (Amersham).

In test [2] the target is T1, PHD2. Description: PHD binding assay (pull down of PHD2 with GST-HIF-1α (531-826)). As to conditions: lysates of transfected 293 cells; 1 mM DMOG; FIG. 7B. On the procedure: as §1
Test [3] addresses T2, HA-OS-9 (hemagglutinin epitope-tagged human OS-9) (human, UniProt Q13438 1-667, 35S-methionine labelled when in vitro-translated).
T2 construct: In vitro-translated in reticulocyte lysate (pull-downs) or expressed in transfected 293 cells (co-IP, lysates); also called HA-tagged OS-9; in vitro-translated OS-9
T2 sequence (looked up): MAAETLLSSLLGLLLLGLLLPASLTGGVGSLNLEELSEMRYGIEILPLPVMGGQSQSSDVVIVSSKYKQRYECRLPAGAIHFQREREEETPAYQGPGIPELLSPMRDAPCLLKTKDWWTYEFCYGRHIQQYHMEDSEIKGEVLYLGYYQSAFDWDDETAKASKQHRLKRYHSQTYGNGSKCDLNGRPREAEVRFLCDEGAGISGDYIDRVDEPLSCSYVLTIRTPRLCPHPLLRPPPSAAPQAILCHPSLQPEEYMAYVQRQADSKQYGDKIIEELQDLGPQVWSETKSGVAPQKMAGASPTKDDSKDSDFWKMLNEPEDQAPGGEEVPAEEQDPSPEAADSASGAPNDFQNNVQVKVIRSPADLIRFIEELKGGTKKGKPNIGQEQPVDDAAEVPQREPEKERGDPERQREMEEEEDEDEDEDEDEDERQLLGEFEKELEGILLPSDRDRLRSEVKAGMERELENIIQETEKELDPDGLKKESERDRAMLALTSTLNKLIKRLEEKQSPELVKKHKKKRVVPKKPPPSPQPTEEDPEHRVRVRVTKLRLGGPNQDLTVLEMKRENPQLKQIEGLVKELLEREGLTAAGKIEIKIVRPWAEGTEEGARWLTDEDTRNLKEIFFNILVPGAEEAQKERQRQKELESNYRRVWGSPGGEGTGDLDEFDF
Nature of the test: GST pull-down of 35S-labelled in vitro-translated HA-OS-9, SDS-PAGE and autoradiography.

Peptide text beside a SMILES is read from it. * marks the point of attachment. Cbz = O=C(OCc1ccccc1)*

Turning to `CC(C)C[C@@H](C=O)NC(=O)[C@H](CC(C)C)NC(=O)[C@H](CC(C)C)NC(=O)OCc1ccccc1` [MG 132, reference compound] (Cbz-Leu-Leu-Leu-aldehyde), the “reduction in HIF-1α protein levels associated with OS-9 co-expression” value in the test on HIF-1α is “blocked”. Consider `COC(=O)CNC(=O)C(=O)OC` [DMOG, dimethyloxalylglycine, reference compound], for which, at PHD2 [1], the “binding of VHL to GST-HIF-1α (531-826)” value is listed as “completely blocked”. The “binding of PHD2 to GST-HIF-1α (531-826)” value on PHD2 [2] is on record as “further increased”.

B1: GST-HIF-1α (786-826) (other, UniProt Q16665 786-826, looked up)
chain: SMDESGLPQLTSYDCEVNAPIQGSRNLLQGEELLRALDQVN
notes: Expressed in E. coli; not shown: glutathione-S-transferase (GST) from a pGEX expression vector
Consider B1, for which the binding result in test [3] was “no binding”.

B2: GST-HIF-1α (531-610) (other, UniProt Q16665 531-610, looked up)
chain: FKLELVEKLFAEDTEAKNPFSTQDTDLDLEMLAPYIPMDDDFQLRSFDQLSPLESSSASPESASPQSTVTVFQQTQIQEP
notes: as for B1
As for B2, the binding result in test [3] is “no binding”.

B3: GST-HIF-1α (429-608) (other, UniProt Q16665 429-608, looked up)
chain: PLYNDVMLPSPNEKLQNINLAMSPLPTAETPKPLRSSADPALNQEVALKLEPNPESLELSFTMPQIQDQTPSPSDGSTRQSSPEPNSPSEYCFYVDSDMVNEFKLELVEKLFAEDTEAKNPFSTQDTDLDLEMLAPYIPMDDDFQLRSFDQLSPLESSSASPESASPQSTVTVFQQTQIQ
notes: as for B1
Regarding B3, the binding result in test [3] is “no binding”.
